Assay results taken from patent publication US7109225B2, “Substituted oxazole derivatives” (Hofmann-la Roche Inc., priority 2002, dated 2006).

Legend:
PPARγ [1] = molecular target: T1, PPARγ (Mus musculus, UniProt P37238); assay: Radioligand binding assay (scintillation proximity), GST-PPARγ-LBD fusion protein; design: PPARγ (aa 174 to 476); conditions: radioligand binding (SPA)
T1 sequence (P37238 204-505): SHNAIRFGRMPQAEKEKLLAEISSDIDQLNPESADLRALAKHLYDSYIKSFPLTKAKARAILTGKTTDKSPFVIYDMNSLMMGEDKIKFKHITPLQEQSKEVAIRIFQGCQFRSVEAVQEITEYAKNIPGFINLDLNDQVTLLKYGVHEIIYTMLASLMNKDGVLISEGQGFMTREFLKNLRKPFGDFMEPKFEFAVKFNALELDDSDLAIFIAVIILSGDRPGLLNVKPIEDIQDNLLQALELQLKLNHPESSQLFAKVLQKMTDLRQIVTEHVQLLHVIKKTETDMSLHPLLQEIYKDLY
Text: Background information on the performed assays can be found in: Nichols J S et al. “Development of a scintillation proximity assay for peroxisome proliferator-activated receptor gamma ligand binding domain”, (1998) Anal. Biochem. 257: 112–119.
(§1) Full-length cDNA clones for human PPARα and mouse PPARγ were obtained by RT-PCR from human adipose and mouse liver cRNA, respectively, cloned into plasmid vectors and verified by DNA sequencing. Bacterial and mammalian expression vectors were constructed to produce glutathione-s-transferase (GST) and Gal4 DNA binding domain proteins fused to the ligand binding domains (LBD) of PPARγ (aa 174 to 476) and PPARα (aa 167 to 469). To accomplish this, the portions of the cloned sequences encoding the LBDs were amplified from the full-length clones by PCR and then subcloned into the plasmid vectors. Final clones were verified by DNA sequence analysis.
(§2) Induction, expression, and purification of GST-LBD fusion proteins were performed in E. coli strain BL21 (pLysS) cells by standard methods (Ref: Current Protocols in Molecular Biology, Wiley Press, edited by Ausubel et al.).
(§3) Radioligand Binding Assay
PPARγ receptor binding was assayed in TKE50 (50 mM Tris-HCl, pH 8, 50 mM KCl, 2 mM EDTA, 0.1 mg/ml fatty acid-free BSA and 10 mM DTT). For each 96 well reaction an 140 ng equivalent of GST-PPARγ-LBD fusion protein was bound to 10 ug SPA beads (PharmaciaAmersham) in a final volume of 50 ul by shaking. The resulting slurry was incubated for 1 h at RT and centrifuged for 2 min at 1300 g. The supernatant containing unbound protein was removed and the semidry pellet containig the recptor-coated beads was resolved in 50 ul of TKE. For radioligand binding e.g. 10000 dpm 2(S)-(2-benzoyl-phenylamino)-3-{4-[1,1-ditritio-2-(5-methyl-2-phenyl-oxazol-4-yl)-ethoxy]-phenyl}-propionic acid in 50 ul were added, the reaction incubated at RT for 1 h and scintillation proximity counting performed. All binding assays were performed in 96 well plates and the amount of bound ligand measured on a Packard TopCount using OptiPlates (Packard). Nonspecific binding was determined in the presence of 10^−4 M unlabelled compound. Dose response curves were done in triplicates within a range of concentration from 10^−10 M to 10^−4 M.

PPARγ [2] = molecular target: T1, PPARγ; assay: Luciferase transcriptional reporter gene assay, BHK21 cells transfected with pFA-PPARγ-LBD; format: cell-based; design: PPARγ (aa 174 to 476); expressed in transfected cells; host or cells: BHK21 (ATCC CCL10); conditions: Gal4-PPARγ-LBD
Text: as §1
(§4) Luciferase Transcriptional Reporter Gene Assays
(§5) Baby hamster kidney cells (BHK21 ATCC CCL10) were grown in DMEM medium containing 10% FBS at 37° C. in a 95%02:5%CO2 atmosphere. Cells were seeded in 6 well plates at a density of 10^5 Cells/well and then batch-transfected with either the pFA-PPARγ-LBD or pFA-PPARα-LBD expression plasmids plus a reporter plasmid and an expression plasmid encoding the secretable form of alkaline phosphatase (SEAP) as a normalization control. […] Six hours following transfection, the cells were harvested by trypsinization and seeded in 96 well plates at a density of 10^4 cells/well. After 24 hours to allow attachment of cells, the medium was removed and replaced with 100 ul of phenol red-free medium containing the test substances or control ligands (final DMSO concentration: 0.1%). Following incubation of the cells for 24 hours with substances, 50 ul of the supernatant was recovered and analyzed for SEAP activity (Roche Molecular Biochemicals). The remainder of the supernatant was discarded, 50 ul PBS was added per well followed by one volume of Luciferase Constant-Light Reagent (Roche Molecular Biochemicals) to lyse the cells and initiate the luciferase reaction. Luminescence for both SEAP and luciferase was measured in a Packard TopCount. Luciferase activity was normalized to the SEAP control and transcriptional activation in the presence of a test substance was expressed as fold-activation over cells incubated in the absence of the substance. EC50 values were calculated using the XLfit program (ID Business Solutions Ltd. UK).

PPARα [3] = molecular target: T2, PPARα (Homo sapiens, UniProt Q07869); assay: Luciferase transcriptional reporter gene assay, BHK21 cells transfected with pFA-PPARα-LBD; format: cell-based; design: PPARα (aa 167 to 469); expressed in transfected cells; host or cells: BHK21 (ATCC CCL10); conditions: Gal4-PPARα-LBD
T2 sequence (Q07869 167-468 limits assumed): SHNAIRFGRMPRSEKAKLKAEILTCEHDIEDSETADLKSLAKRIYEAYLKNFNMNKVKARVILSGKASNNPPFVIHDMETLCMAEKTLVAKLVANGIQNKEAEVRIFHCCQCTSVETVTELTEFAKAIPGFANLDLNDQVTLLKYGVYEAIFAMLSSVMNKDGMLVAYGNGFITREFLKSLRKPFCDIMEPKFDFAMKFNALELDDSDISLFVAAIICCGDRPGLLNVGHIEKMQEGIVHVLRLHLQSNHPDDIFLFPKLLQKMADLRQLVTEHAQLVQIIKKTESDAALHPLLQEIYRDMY
Text: (§6) Full-length cDNA clones for human PPARα and mouse PPARγ were obtained by RT-PCR from human adipose and mouse liver cRNA, respectively, cloned into plasmid vectors and verified by DNA sequencing. […] To accomplish this, the portions of the cloned sequences encoding the LBDs were amplified from the full-length clones by PCR and then subcloned into the plasmid vectors. Final clones were verified by DNA sequence analysis.
as §4, §5

PPARα [4] = molecular target: T2, PPARα; assay: Radioligand binding assay, GST-PPARα-LBD fusion protein; design: PPARα (aa 167 to 469)
Text: as §6, §2, §3
PPARα receptor binding was assayed in TKE10 (10 mM Tris-HCl, pH 8, 50 mM KCl, 2 mM EDTA, 0.1 mg/ml fatty acid free BSA and 10 mM DTT). […]
PPARγ receptor binding was assayed in TKE50 (50 mM Tris-HCl, pH 8, 50 mM KCl, 2 mM EDTA, 0.1 mg/ml fatty acid-free BSA and 10 mM DTT). […] All binding assays were performed in 96 well plates and the amount of bound ligand measured on a Packard TopCount using OptiPlates (Packard). Nonspecific binding was determined in the presence of 10^−4 M unlabelled compound. […]

| IC50 (PPARγ [1]) | EC50 (PPARγ [2]) | melting point | EC50 (PPARα [3]) | IC50 (PPARα [4]) | Compound |
| --- | --- | --- | --- | --- | --- |
| 69 nM | 19 nM | 159 to 160 °C | 27 nM | – | Cc1oc(C(C)(C)C)nc1CCOc1ccc(CC(OC(C)C)C(=O)O)c2sccc12 (stereo not shown) [Example 8, 3-{4-[2-(2-tert-Butyl-5-methyl-oxazol-4-yl)-ethoxy]-benzo[b]thiophen-7-yl}-2-isopropoxy-propionic acid] |
| 162 nM | 67 nM | – | 6 nM | – | CCCOC(Cc1ccc(OCCc2nc(CC(C)(C)C)oc2C)c2ccccc12)C(=O)O (stereo not shown) [Example 33, 3-(4-{2-[2-(2,2-Dimethyl-propyl)-5-methyl-oxazol-4-yl]-ethoxy}-naphthalen-1-yl)-2-propoxy-propionic acid] |
| 153 nM | 237 nM | 103 to 105 °C | 35 nM | 53 nM | CCO[C@@H](Cc1ccc(OCCc2nc(C(C)(C)C)oc2C)c2ccccc12)C(=O)O [Example 1, (S)-3-{4-[2-(2-tert-Butyl-5-methyl-oxazol-4-yl)-ethoxy]-naphthalen-1-yl}-2-ethoxy-propionic acid] |
| 202 nM | 80 nM | 61 to 63 °C | 62 nM | – | CCCOC(Cc1ccc(OCCc2nc(C3CC3)oc2C)c2ccsc12)C(=O)O (stereo not shown) [Example 31, 3-{4-[2-(2-Cyclopropyl-5-methyl-oxazol-4-yl)-ethoxy]-benzo[b]thiophen-7-yl}-2-propoxy-propionic acid] |
